From patent US11261152B2, “Inhibitors of the N-terminal domain of the androgen receptor” (The Regents of the University of California, priority 2017, dated 2022)
Structures can show the parent of a compound that is named as a salt.

How the values were obtained:
[1] = molecular target: T1, AR transactivation domain (TAD) (Homo sapiens, UniProt P10275); assay: AR-TAD fused to GAL4 DNA-binding domain reporter assay; format: cell-based
T1 construct: expressed in transfected cells
T1 sequence (P10275 1-559 limits assumed): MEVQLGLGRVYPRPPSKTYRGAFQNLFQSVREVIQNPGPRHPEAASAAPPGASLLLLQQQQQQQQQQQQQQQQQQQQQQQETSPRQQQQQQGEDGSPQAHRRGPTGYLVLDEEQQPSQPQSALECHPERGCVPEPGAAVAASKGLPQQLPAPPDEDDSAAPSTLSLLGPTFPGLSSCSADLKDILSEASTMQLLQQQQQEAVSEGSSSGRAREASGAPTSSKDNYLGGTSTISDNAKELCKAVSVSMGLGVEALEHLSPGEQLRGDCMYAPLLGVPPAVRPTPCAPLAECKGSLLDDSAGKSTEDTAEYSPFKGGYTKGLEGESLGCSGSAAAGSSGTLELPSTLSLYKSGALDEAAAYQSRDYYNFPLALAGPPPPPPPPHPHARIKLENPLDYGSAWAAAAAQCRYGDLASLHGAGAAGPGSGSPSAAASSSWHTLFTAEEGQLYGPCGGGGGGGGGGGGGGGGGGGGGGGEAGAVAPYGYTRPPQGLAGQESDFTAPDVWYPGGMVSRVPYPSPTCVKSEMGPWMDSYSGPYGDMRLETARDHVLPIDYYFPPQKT
Description: (§1) The inhibitory activity of JN018 was further evaluated in experiments in which the AR transactivation domain (TAD) or the c-Jun or CREB TAD was fused to the heterologous GAL4 DNA-binding domain and thereby drive reporter gene expression governed by the GAL4 response element (FIG. 1).

AR = molecular target: T2, AR (Homo sapiens, UniProt P10275); assay: AR binding
T2 sequence (P10275 1-920): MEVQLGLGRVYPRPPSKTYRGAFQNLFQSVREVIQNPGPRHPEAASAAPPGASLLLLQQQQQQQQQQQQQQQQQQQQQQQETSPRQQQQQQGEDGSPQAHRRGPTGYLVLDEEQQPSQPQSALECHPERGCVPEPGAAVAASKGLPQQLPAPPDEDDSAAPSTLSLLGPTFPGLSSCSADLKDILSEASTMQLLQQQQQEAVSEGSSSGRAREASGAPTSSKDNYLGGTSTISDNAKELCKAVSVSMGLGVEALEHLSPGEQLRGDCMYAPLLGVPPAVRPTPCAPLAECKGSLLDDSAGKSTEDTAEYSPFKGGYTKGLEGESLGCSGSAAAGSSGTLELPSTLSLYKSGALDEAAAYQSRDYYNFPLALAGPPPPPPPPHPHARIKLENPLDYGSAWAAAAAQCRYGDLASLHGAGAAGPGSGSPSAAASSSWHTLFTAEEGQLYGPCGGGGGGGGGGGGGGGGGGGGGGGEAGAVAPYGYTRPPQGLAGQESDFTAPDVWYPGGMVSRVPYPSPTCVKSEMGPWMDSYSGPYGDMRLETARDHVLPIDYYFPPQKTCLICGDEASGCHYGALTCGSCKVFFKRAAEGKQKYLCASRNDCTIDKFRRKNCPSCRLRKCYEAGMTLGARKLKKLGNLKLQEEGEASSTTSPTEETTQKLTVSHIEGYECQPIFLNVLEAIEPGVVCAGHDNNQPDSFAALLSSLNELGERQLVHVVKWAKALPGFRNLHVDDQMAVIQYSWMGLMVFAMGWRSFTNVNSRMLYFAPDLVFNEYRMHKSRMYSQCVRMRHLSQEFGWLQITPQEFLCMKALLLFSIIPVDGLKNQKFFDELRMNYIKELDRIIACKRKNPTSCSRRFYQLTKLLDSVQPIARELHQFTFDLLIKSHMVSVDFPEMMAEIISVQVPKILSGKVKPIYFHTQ
Description: In particular, JN018 has the following properties: (1) AR TAD is its molecular target. […] (3) JN018 induces rapid degradation of the full-length AR (ARFL) and constitutively active AR splice variants (ARSV) that lack a functional LBD. […] (5) JN018 causes growth inhibition of castration resistant prostate cancer xenografts. (6) JN018 inhibits AR-driven gene expression.

[2] = tested on: LNCaP-AR castration resistant cell line; assay: LNCaP-AR castration resistant xenograft in castrated nude mice; format: in vivo
Method: FIG. 12A. In vivo effects of JN series compounds.
FIG. 12B. In vivo effects of JN series compounds.
Selected compounds were tested in a mouse xenograft model. In this model, the LNCaP-AR castration resistant cell line was grown subcutaneously in the flanks of castrated nude mice. When tumors reached 150-200 mm^3, mice were administered selected JN series compounds, vehicle or positive control by oral gavage once per day for five days per week (Mon-Fri). […].

[3] = tested on: CREB mediated reporter activity; assay: CRE / CREB mediated reporter assay; format: cell-based
[4] = tested on: androgen response element (ARE); assay: ARE reporter assay (tandem copies of the androgen response element); format: cell-based
Method: FIG. 11A. Effects of JN series compounds in reporter assays for androgen response element. Experiments were performed in triplicate and results are means+/−s.d.

[5] = tested on: prostate cancer cell lines; assay: Growth inhibition of prostate cancer cell lines (IC50); format: cell-based
CREB TAD = assay: CREB-TAD fused to GAL4 DNA-binding domain reporter assay; format: cell-based; conditions: Table 3 grade HIGH/MED/LOW, grades not defined
Description: as §1

[6] = tested on: AR regulated genes (TMPRSS, NDRG), AR^FL, AR-V7; assay: Expression of AR-regulated genes (Western blot); format: cell-based
Method: 22Rv1 and CWR22 cells were exposed to JN018 at the indicated concentrations (in μM) for 24 hours before protein extraction for Western blotting.
JN018 was further evaluated to identify a mechanism for its activity in prostate cancer cell lines. It was discovered that JN018 inhibits the expression of AR regulated genes. […] In principle, decreased AR expression can be attributed to several different effects, such as gene transcription, mRNA stability, translation, or protein stability.

[7] = tested on: AR positive PCa cells (LNCaP, LNCaP-AR, CWR22, 22Rv1, LAPC4); assay: MTT / CellTiter GLO cell viability, AR positive prostate cancer cells
Method: (§2) The results are means of quadruplicate expts±s.d. Top panel: CellTiter GLO luminescent bioassay (arbitrary units on vertical axis). Bottom panel: classical MTT assay ([blue/yellow]=[viable/non-viable]).
(§3) Experiments were performed in quadruplicate; results are means+/−s.d.
Results were normalized to that of vehicle control. Experiments were performed in quadruplicate; results are means+/−s.d.
Next, the effects of the compounds on growth of prostate cancer cell lines in vitro were evaluated.

[8] = tested on: AR-null PCa cells (DU145, PC3); assay: MTT / CellTiter GLO cell viability, AR-null prostate cancer cells
Method: as §2, §3
AR null PC3 cells were exposed to the indicated compounds for 6 days; cell viability was measured by MTT assay. Results were normalized to that of vehicle control. Experiments were performed in quadruplicate; results are means+/−s.d.
For each compound and concentration in the figure, the bars represent relative cell viability of 22Rv1, LAPC4, and DU145, from left to right.
For each compound and concentration in the figure, the bars represent relative cell viability of CWR22 and PC3, from left to right.

[9] = Table 3 grade HIGH/MED/LOW, grades not defined

C=C(CN(C)Cc1ccccc1)C(=O)/C(=C/c1ccc(Cl)cc1)c1ccccc1 [JN018, (E)-4-((Benzyl(methyl)amino)methyl)-1-(4-chlorophenyl)-2-phenylpenta-1,4-dien-3-one hydrochloride]
AR-TAD [1, 9]: HIGH
inhibition of the AR-GAL4-DBD fusion protein ([1]; result in words, versus c-Jun or CREB TAD fusions): selectively inhibits
binding to the AR (AR; result in words): direct, selective, high affinity covalent binding
Kd (AR; unit inferred): 7.3 nM
tumor growth of LNCaP-AR model in castrated nude mice ([2]; oral gavage once per day, five days per week (Mon-Fri), hydrochloride): inhibits growth
signs of toxicity in mice ([2]; xenograft study, oral gavage Mon-Fri): some mice exhibited signs of toxicity
CRE [3, 9]: LOW
CREB mediated reporter activity ([3]; result in words): does not affect
ARE [4, 9]: HIGH
reporter activity driven by the ARE ([4]; result in words): inhibits reporter activity
IC50 [5]: 1500 nM
CREB-TAD (CREB TAD): LOW
full length AR and AR-V7 expression [6]: reduces both full length AR and AR-V7 expression
expression of TMPRSS and NDRG ([6]; 22Rv1 and CWR22 cells, 24 hours): reduces expression of TMPRSS and NDRG in a dose-dependent fashion
MTT AR-Pos [7, 9]: HIGH
growth of AR expressing prostate cancer cells ([7]; result in words): inhibits the growth
MTT AR-Neg [8, 9]: LOW
growth of AR null prostate cancer cells ([8]; result in words): had no effect
